Measured values taken from patent publication US7388006B2, “Non-steroidal progesting” (Bayer Schering Pharma AG, priority 2002, dated 2008).

How the values were obtained:
PR-A = type: cell-based; conditions: PR-A efficacy minus PR-B efficacy
Description: The method for screening for PR isoform-specific progestins according to the present invention is carried out with first and second SK-N-MC cells stably transfected with a plasmid expressing the HPR-A (first cells) or the hPR-B (second cells) and the LUC reporter gene linked to the hormonally responsive MTV promoter.
The cells are cultured in Minimum Essential Medium with Earl's Salts (S-MEM, without L-glutamine; Gibco BRL, no. 21090-022), supplemented with 10% fetal calf serum (FCS), penicillin 100U/streptomycin 100 μg/ml (Biochrom, no. A2213), L-glutamine 4 mmol/l (Gibco BRL, no. 25030-024), sodium pyruvate 1 mmol/l (Biochrom, no. L0473) and 1×non-essential amino acids (Biochrom, no. K0293) at a temperature of 37° C. and in an atmosphere of 5% carbon dioxide.
For the transcription assay, the cells are seeded onto 96-well dishes (2×10^4 cells/dish) and cultured in a medium as described above, with the exception that the FCS is replaced by a 3% charcoal stripped FCS. 48 hours later, cells are contacted with prediluted test compounds. For determination of agonistic activity, cells are cultured in the presence of 6 increasing concentrations (10^−6 to 10^−11 mol/l) of test progestins. As a positive control for reporter gene induction cells are treated with 10^−6 to 10^−11 mol/l R5020 (promegestone). As a negative control for reporter gene induction, cells are cultured in 1% ethanol.
After incubation with test progestins for 24 hours, the medium is removed and cells are lysed with 20 μl of lysis buffer (Luciferase Assay System E 153A; Promega) and under agitation of the plate for 101 min. After addition of 30 μl of luciferase reagent (Luciferase Assay System E 151A+152A; Promega) within 30 seconds per plate, the activity of the luciferase reporter gene product is determined in the cell lysates by means of a Microlite ML 3000 microtiter plate luminometer (Dynatech) in cycle mode.
Evaluation of the response gives the efficacy [%], and evaluation of the EC50s values gives the potency [nM]. Calculation of the agonistic activity is conducted as follows:
The LUC activity [%] for the measured data points is calculated as follows:
[formula] wherein CI=100% stimulation (R5020, 10^−7 mol/l) and CO=0% stimulation (ethanol, 1%).
Thus, the efficacy [%] is calculated according to: […]
The potency [nM], i.e. the EC50, is determined graphically.

rat mammary epithelium = assay: MIB-5 immunohistochemistry, proliferation of the mammary epithelium; type: in vivo; conditions: 0.3 mg/kg/d, FIG. 2
Description: In order to determine the effects of test progestins according to the present invention, in particular compound ((+)-1), in mammary gland differentiation and proliferation, premature female rats (Wistar Han, SPF) are ovariectomized at the age of 21 days, 4 to 6 days before treatment start. The animals are treated for 6 days with standard estrogen (estrone (E1), 70 μg/kg) and the test progestin ((+)-1) (application volume: 0.1 ml/50 g body weight; vehicle: benzylbenzoate/castor oil (1+4 v/v); subcutaneous). Control groups are e.g.: vehicle, estrone without progestin, estradiol together with a known progestin, e.g. R5020 (promegestone). After the 6-day treatment the animals are killed with carbon dioxide.
For the whole mount staining, animals are shaved in the left abdominal inguinal mammary region, which is cut from the body together with the skin. For the histological/immunohistochemical analyses the right abdominal inguinal mammary gland is cut from the body together with the connective-tissue adhered thereto and fixed in 3.7% formalin in PBS (phosphate buffer saline; without Ca^2+/Mg^2+).
For a more detailed evaluation of the proliferation of the mammary epithelium, cells are stained with the proliferation marker MIB-5 as follows (cf. FIG. 2): Mammary glands are fixed in 4% formaldehyde/PBS for 24 h and embedded in paraffm. 4 μm sections are spread on slides, deparaffinized, treated with microwaves for 10 min. in citrate buffer pH 6.0 and rinsed with PBS. Slides are then blocked with 3% H2O2/methanol for 15 min., Blockingkit (Vektor, no. SP-2001) for 10 min. and rat serum (Sigma, no. S-7648) diluted 1:2 in PBS for 30 min to reduce nonspecific staining and rinsed in PBS. Slides are incubated for 1 hour with monoclonal antibody MIB-5 (Dianova, no. Dia-5055), which is specific for the rat Ki-67 antigen (1:200 diluted in PBS/0.2% BSA). […]
In order to characterize a test compound, the percentage of MIB-5 stained mammary epithelium cells is determined. […]

[1] = test system: pregnancy in ovariectomized rats; assay: Pregnancy maintenance test in rat; type: in vivo; conditions: ovariectomized pregnant rats, with estrone
From the text: In rats, castration induces termination of pregnancy. Progestins (combined with estrogens) are capable of maintaining pregnancy in castrated animals. However, the degree of pregnancy maintenance in castrated rats is optimal only in a defined dose range. Therefore, higher as well as lower doses generally induce a weaker effect. Accompanying treatment with defined doses of estrone (E1) increases the pregnancy maintaining effect of progestins.
Pregnant rats (Wistar Han, SPF) of 190 to 220 g (5 to 8 animals per dose) are ovariectomized on day 8 of pregnancy, 2 hours after the first substance administration. From day 8 to day 14, rats are daily treated with test progestin in combination with a standard dose of E1. One day later, animals are killed with carbon dioxide. For each animal, the number of living and dead fetuses is determined according to the heartbeat of the embryos. In case of empty uteri, the number of implantation sites is determined by means of staining with a 10% ammonium sulfide solution.
S.c. (subcutaneous) application: The test progestin is dissolved in benzyl benzoate/castor oil (1+4 v/v), and the daily dose is administered in a volume of 1 ml/kg body weight.
P.o. (peroral) application: The test progestin is suspended in a carrier liquid (85 mg Myrj^R in 100 ml 0.9% w/v NaCl solution), and the daily dose is administered in a volume of 2 ml/kg body weight.
I.p. (intraperitoneal) application: The test progestin is dissolved in propylene glycol and charged in miniature osmotic pumps (type 2001, 1.0 μl/h, 7 days), which are placed in the abdominal cavity of the rat.
The standard dose of estrone is 0.005 mg/kg body weight s.c. and is dissolved in benzyl benzoate/castor oil ([…]).
It is determined the pregnancy maintenance per animal [%], the pregnancy maintenance per dose (median of single values) and the EC50 (dose, at which pregnancy is maintained in 50% of the animals; 100% corresponds to control animals that are not ovariectomized). The results of the test are further discussed below in c).

Row | Structure (SMILES) | Δ agonism efficacies (A-B) (PR-A) | further results
1 | Cc1noc(=O)c2ccc(NC(=O)C(O)(CC3(c4cccc(C(F)(F)F)c4F)CC3)C(F)(F)F)cc12 (single isomer, unassigned; (+)) [((+)-2), (+)-6-{2-hydroxy-3-[1-(2-fluoro-3-trifluoromethylphenyl)-cyclopropyl]-2-trifluoro-methyl-propionylamino}-4-methyl-2,3-benzoxazin-1-one] | 32 | –
2 | Cc1noc(=O)c2ccc(NC(=O)C(C)(O)CC3(c4cccc(C(F)(F)F)c4)CC3)cc12 (single isomer, unassigned; (+)) [((+)-3), (+)-6-{2-hydroxy-3-[1-(3-trifluoromethylphenyl)-cyclopropyl]-2-methyl-propionylamino}-4-methyl-2,3-benzoxazin-1-one] | 23 | –
3 | O=C1OCc2cc(NC(=O)C(O)(CC3(c4cccc(C(F)(F)F)c4F)CC3)C(F)(F)F)ccc21 (single isomer, unassigned; (+)) [((+)-4), (+)-5-{2-hydroxy-3-[1-(2-fluoro-3-trifluoromethylphenyl)-cyclopropyl]-2-trifluoromethyl-propionylamino}-phthalide] | 18 | –
4 | Cc1noc(=O)c2ccc(NC(=O)C(C)(O)CC3(c4cccc(C(F)(F)F)c4)CC3)cc12 (single isomer, unassigned; (-)) [((−)-3), (−)-6-{2-Hydroxy-3-[1-(3-trifluoromethylphenyl)-cyclopropyl]-2-methyl-propionylamino}-4-methyl-2,3-benzoxazin-1-one] | – | melting point: 129 to 130 °C
5 | CCC(=O)[C@@]1(C)CC[C@H]2[C@@H]3CCC4=CC(=O)CCC4=C3CC[C@@]21C [R5020, promegestone, reference compound] | – | MIB-5 positive cells (rat mammary epithelium): ~42%; Maintenance of pregnancy (rat) [EC50] [1]: 0.1 mg/kg/day
